Literature values in patent US20070028930A1, “Active agent and formulations to minimize or alleviate bladder urgency and irritation and/or to enhance sexual function” (Delithe Natural Products Inc., priority 2005, published 2007).

System: bladder
Details: 10 mg/kg dose, rats

CNCC[C@H](Oc1cccc2ccccc12)c1cccs1 [Duloxetine]
efficacy in in vivo bladder studies: effective
